Assay results taken from patent US20240082222A1, “4-CHLORO-N-[2-[(4-CHLOROPHENYL)METHYL]-3-OXO-1,2,4-THIADIAZOL-5-YL]BENZAMIDE FOR USE IN MEDICINE” (Betagenon AB, priority 2021, published 2024).
“And” between values parts separate entries of the source, which are not always exact repeats. Identical values can stand only once. Counter-ions that a name gives are not always drawn. Like-named read-outs stand apart in the source and are kept apart here.

Assay: Pharmacokinetic study in humans, sodium salt in enteric capsules, single and multiple dose (Example 2)
Assay type: in vivo, human
Conditions: for AUClast_D / Cmax D / AUC_TAU_D: dose-normalised; for AUC(0-t) / Cmax / Tmax / AUC / concentration at 24 h: human, plasma, oral; for Cmax: read-out: Cmax; for Tmax: read-out: Tmax; for concentration at 24 h: read-out: Clast
Description: An open, randomised, parallel-group study in healthy volunteers (hereafter referred to as subjects) was conducted to evaluate the exposure of 4-chloro-N-[2-[(4-chlorophenyl)methyl]-3-oxo-1,2,4-thiadiazol-5-yl]benzamide after single and multiple dose administration of 3 dose levels of the sodium salt of 4-chloro-N-[2-[(4-chlorophenyl)methyl]-3-oxo-1,2,4-thiadiazol-5-yl]benzamide and to evaluate combination with dapagliflozin at steady state.
For the study, Vcaps enteric capsules, size 0, were individually filled with 200 mg of milled test material together with 2 mg of sodium docusate, 125 mg of mannitol and 6.5 mg of sodium lauryl sulfate. […]
A screening visit (Visit 1) was performed within 28 days before randomisation and the start of IMP administration. The subjects were confined to the research clinic from the evening before Day 1 (Visit 2; Day—1). […]
Pre-dose safety assessments as well as pre- and post-dose PK assessments were performed. The subjects left the clinic after the last PK-sample on Day 1 and returned for a 24 h PK sample and dosing on Day 2 (Visit 3).
Subjects self-administered the test material at home from Day 3 to Day 15. A telephone visit to check compliance, AE status and use of concomitant medications will be performed on Day 8 (Visit 4).
The subjects returned to the clinic on Days 16 and 17 (Visits 5 and 6), for PK sampling and AE assessment. Visit 6 continued in the evening of Day 17, when the subjects were confined to the clinic until Day 18. On Day 18, pre- and post-dose PK and safety assessments were performed. The subjects left the clinic after the last PK sample on Day 18 and returned for a 24 h PK sample and dosing on Day 19 (Visit 7).
On Day 19 (Visit 7) subjects began co-administration of the test material and dapagliflozin (Forxiga), 10 mg per day for 7 days (Day 19 to Day 25). The subjects returned to the clinic on Day 25 (Visit 8) for final dosing, PK and safety assessments. A final end-of-study visit (Visit 9) for follow-up of safety assessments was conducted 28 days (+14 days) after Visit 8 or after early withdrawal.
Venous blood samples (approximately 5 mL) for the determination of plasma concentrations of 4-chloro-N-[2-[(4-chlorophenyl)methyl]-3-oxo-1,2,4-thiadiazol-5-yl]benzamide after administration of the test material were collected through an indwelling venous catheter on Days 1, 2, 16 to 19 and 25.
The blood samples were collected in pre-labelled Li-Heparin tubes. All the collected blood samples were be centrifuged at 1500 G for 10 minutes to separate plasma within 60 minutes from the sample is drawn. The separated plasma from each blood sample was be divided into 2 aliquots in pre-labelled polypropylene cryotubes (A and B samples, approximately 750 μL in each tube) and frozen at <−70° C. On Day 25, the plasma was divided in to 3 aliquots of at least 500 μL (A and B samples for the test material, and 1 sample for potential future analysis of dapagliflozin).
Samples for determination of plasma concentrations of 4-chloro-N[2-[(4-chlorophenyl)methyl]-3-oxo-1,2,4-thiadiazol-5-yl]benzamide were analysed by Lablytica Life Science AB, Uppsala, Sweden by means of a validated LS-MS/MS method.
The data of plasma concentration to respective time points for the analyte (4-chloro-N-[2-[(4-chlorophenyl)methyl]-3-oxo-1,2,4-thiadiazol-5-yl]benzamide) were used for the pharmacokinetic analysis. Pharmacokinetic analysis was performed using non-compartmental analysis (NCA) module of Phoenix WinNonlin 8.1 software to determine the following pharmacokinetic parameters.
After single dose administration of test material: • AUC0-24, Cmax, Tmax and dose proportionality (based on AUC0-24 and Cmax) (secondary endpoints). […]

[1] = 2000 mg Dose Group, capsule once daily, Day 18, Mean
[2] = 2000 mg Dose Group, capsule once daily, Day 18, Median
[3] = capsule once daily, Day 18, individual subjects, listed as test material
[4] = 200 mg, mean, dose group 200, capsule, Day 1
[5] = 200 mg, mean, dose group 200, capsule, Day 18
[6] = 400 mg, 400 mg Dose Group, capsules once daily, Day 18, Geometric Mean
[7] = 400 mg, 400 mg Dose Group, capsules once daily, Day 18, Mean
[8] = 400 mg, 400 mg Dose Group, capsules once daily, Day 18, Median
[9] = 400 mg, 400 mg Dose Group, capsules once daily, Day 18, individual subjects
[10] = 400 mg, mean, dose group 400, capsule, Day 1
[11] = 400 mg, mean, dose group 400, capsule, Day 18
[12] = 800 mg, 800 mg Dose Group, capsules once daily, Day 18, Geometric Mean
[13] = 800 mg, 800 mg Dose Group, capsules once daily, Day 18, Mean
[14] = 800 mg, 800 mg Dose Group, capsules once daily, Day 18, Median
[15] = 800 mg, 800 mg Dose Group, capsules once daily, Day 18, individual subjects
[16] = 800 mg, mean, dose group 800, capsule, Day 1
[17] = 800 mg, mean, dose group 800, capsule, Day 18
[18] = 2000 mg, 2000 mg Dose Group, capsule once daily, Day 18, Geometric Mean
[19] = 2000 mg, 2000 mg Dose Group, capsule once daily, Day 18, Mean
[20] = 2000 mg, 2000 mg Dose Group, capsule once daily, Day 18, Median

O=C(Nc1nc(=O)n(Cc2ccc(Cl)cc2)s1)c1ccc(Cl)cc1 [Compound of formula II, sodium salt of 4-chloro-N-[2-[(4-chlorophenyl)methyl]-3-oxo-1,2,4-thiadiazol-5-yl]benzamide]
AUClast_D [1]: 5.305 µg·h/mL/mg | Cmax D [1]: 0.2493 µg/mL/mg | AUC_TAU_D [2]: 4.752 µg·h/mL/mg | AUClast_D [2]: 4.888 µg·h/mL/mg | Cmax D [2]: 0.2403 µg/mL/mg | AUC_TAU_D (2000 mg Dose Group, capsule once daily, Day 18, individual subjects, listed as test material): 5.67 µg·h/mL/mg and 4.2 µg·h/mL/mg and 8.01 µg·h/mL/mg and 4.01 µg·h/mL/mg and 4.75 µg·h/mL/mg and 3.87 µg·h/mL/mg and 5.06 µg·h/mL/mg | AUClast_D [3]: 5.65 µg·h/mL/mg and 6.98 µg·h/mL/mg and 4.19 µg·h/mL/mg and 7.98 µg·h/mL/mg and 4 µg·h/mL/mg and 4.74 µg·h/mL/mg and 3.86 µg·h/mL/mg and 5.04 µg·h/mL/mg | Cmax D [3]: 0.261 µg/mL/mg and 0.31 µg/mL/mg and 0.21 µg/mL/mg and 0.36 µg/mL/mg and 0.201 µg/mL/mg and 0.231 µg/mL/mg and 0.173 µg/mL/mg and 0.25 µg/mL/mg | AUC(0-t) [4]: 87.4 µg·h/mL | Cmax [4]: 7.19 µg/mL | Tmax [4]: 15 h | AUC(0-t) [5]: 1060 µg·h/mL | Cmax [5]: 49.9 µg/mL | Tmax [5]: 8.03 h | Cmax (200 mg, repeated dosing, study of Example 2): ~50 µg/mL | AUC [6]: 1500 µg·h/mL | AUC(0-t) [6]: 1520 µg·h/mL | Cmax [6]: 69.6 µg/mL | Tmax [6]: 4.27 h | AUC [7]: 1530 µg·h/mL | AUC(0-t) [7]: 1540 µg·h/mL | Cmax [7]: 70.8 µg/mL | Tmax [7]: 8.31 h | AUC [8]: 1400 µg·h/mL | AUC(0-t) [8]: 1480 µg·h/mL | Cmax [8]: 66.1 µg/mL | Tmax [8]: 5 h | AUC [9]: 1210 µg·h/mL | AUC(0-t) [9]: 1210 µg·h/mL | Cmax [9]: 56.2 µg/mL | AUC(0-t) [10]: 158 µg·h/mL | Cmax [10]: 10.6 µg/mL | Tmax [10]: 15.4 h | AUC(0-t) [11]: 1540 µg·h/mL | Cmax [11]: 70.8 µg/mL | Tmax [11]: 8.31 h | AUC [12]: 2530 µg·h/mL | AUC(0-t) [12]: 2590 µg·h/mL | concentration at 24 h [12]: 108 µg/mL | Cmax [12]: 118 µg/mL | AUC [13]: 2560 µg·h/mL | AUC(0-t) [13]: 2620 µg·h/mL | concentration at 24 h [13]: 110 µg/mL | Cmax [13]: 118 µg/mL | Tmax [13]: 11.5 h | AUC [14]: 2730 µg·h/mL | AUC(0-t) [14]: 2670 µg·h/mL | concentration at 24 h [14]: 115 µg/mL | Cmax [14]: 122 µg/mL | Tmax [14]: 9.99 h | AUC [15]: 1810 µg·h/mL | AUC(0-t) [15]: 1800 µg·h/mL | concentration at 24 h [15]: 73.7 µg/mL | Cmax [15]: 87.3 µg/mL | AUC(0-t) [16]: 340 µg·h/mL | Cmax [16]: 22.8 µg/mL | Tmax [16]: 15.6 h | AUC(0-t) [17]: 2620 µg·h/mL | Cmax [17]: 118 µg/mL | Tmax [17]: 11.5 h | AUC [18]: 987 µg·h/mL | AUC(0-t) [18]: 1030 µg·h/mL | Cmax [18]: 48.6 µg/mL | AUC [19]: 1020 µg·h/mL | AUC(0-t) [19]: 1060 µg·h/mL | concentration at 24 h [19]: 44 µg/mL | Cmax [19]: 49.9 µg/mL | Tmax [19]: 8.03 h | AUC [20]: 950 µg·h/mL | AUC(0-t) [20]: 978 µg·h/mL | Cmax [20]: 48.1 µg/mL | Tmax [20]: 6.5 h | peak blood plasma concentration (repeated dosing of 200 mg in the form of a capsule): ≥ 50 µg/mL | blood plasma concentration versus same amount of free base form (repeated dosing, 200 to 1000 mg/day): approximately five-fold higher
